From PubChem BioAssay (NCI) come the findings set out here.

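Five concentrations, 48 hours, 96-well plates. GI50 marks 50% less growth. TGI: concentration producing complete growth inhibition.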

Test systems include UO-31 renal; RXF 393 renal; CCRF-CEM leukemia; TK-10 renal; COLO 205 colon; A498 renal; UACC-257 melanoma.
Common to all, as to assay: inhibition of tumour cell growth, NCI panel, 48 h

As to `Cn1cccc1-c1cc(-c2cccs2)nc(N)c1C#N`, the GI50 with UO-31 renal, in the assay with RXF 393 renal, with CCRF-CEM leukemia, in the assay on TK-10 renal, with COLO 205 colon and in the assay with A498 renal was greater than 100 µM in each case. For the same compound, the GI50 with UACC-257 melanoma was greater than 100 µM. Moreover, the TGI in the assay on UO-31 renal, with RXF 393 renal, with CCRF-CEM leukemia, in the assay with TK-10 renal, in the assay on COLO 205 colon and with A498 renal was greater than 100 µM throughout. Further, the TGI in the assay on UACC-257 melanoma is greater than 100 µM.
On to `O=c1cc(-c2ccccc2)[nH]c2ccccc12`, for which the GI50 was 3.28 µM in the assay on UO-31 renal; 0.996 µM in the assay on RXF 393 renal; 0.738 µM in the assay on CCRF-CEM leukemia; 0.45 µM in the assay with COLO 205 colon; 0.428 µM with A498 renal; greater than 79.3 µM in the assay on UACC-257 melanoma. Further, the TGI was greater than 100 µM with UO-31 renal; 9.68 µM in the assay on RXF 393 renal; greater than 100 µM with CCRF-CEM leukemia; greater than 100 µM with TK-10 renal; 33 µM in the assay on A498 renal; greater than 100 µM in the assay on UACC-257 melanoma.
Regarding `O=C1/C(=C\c2c[nH]c3ccccc23)c2ccccc2N1c1c(Cl)cccc1Cl`, the GI50 in the assay on UO-31 renal is 1.4 µM; with RXF 393 renal, 2.02 µM; with CCRF-CEM leukemia, 2.42 µM; with TK-10 renal, 2.17 µM; in the assay on COLO 205 colon, 1.8 µM; in the assay on A498 renal, 3.09 µM. The GI50 with UACC-257 melanoma was 2.34 µM. Also, the TGI is 3.23 µM in the assay with UO-31 renal; 3.92 µM in the assay with RXF 393 renal; 7.23 µM in the assay on CCRF-CEM leukemia; 5 µM in the assay on TK-10 renal; 3.27 µM in the assay on COLO 205 colon; 4.86 µM in the assay on A498 renal. For the same compound, in the assay with UACC-257 melanoma, the TGI came to 4.61 µM.
For the compound `CC1OC(O[C@@H]2OC=C(C=O)[C@@]3(O)CC[C@H](C)[C@@H]23)C(O)C(O)C1O` (some centres not stated), the TGI in the assay with UO-31 renal, in the assay on RXF 393 renal, in the assay with CCRF-CEM leukemia, in the assay on TK-10 renal, with COLO 205 colon and with A498 renal was greater than 100 µM in each case. In the assay on UACC-257 melanoma, this compound registered a TGI greater than 100 µM.
As for `CC1(C)CC(=O)c2c(C(F)(F)F)nn(-c3ccc(C(N)=O)c(NC4CCC(OC(=O)CN)CC4)c3)c2C1` (configuration not stated), the GI50 is 0.418 µM in the assay on UO-31 renal; 0.157 µM in the assay with RXF 393 renal; 0.0339 µM with CCRF-CEM leukemia; 0.0592 µM with TK-10 renal; 0.0289 µM in the assay with COLO 205 colon; 0.303 µM in the assay with A498 renal. Moreover, the GI50 in the assay on UACC-257 melanoma is 0.029 µM. For the same compound, the TGI in the assay with UO-31 renal was greater than 27.1 µM; in the assay on RXF 393 renal, 28.8 µM; in the assay on CCRF-CEM leukemia it was greater than 100 µM; in the assay with TK-10 renal it was greater than 100 µM; with COLO 205 colon, 8.03 µM; with A498 renal, greater than 100 µM. Further, in the assay with UACC-257 melanoma, the TGI is 0.0972 µM.
For `COc1ccc(-c2nc3sc4c(c3c(=O)[nH]2)CCCCCC4)cc1`, the GI50 in the assay with UO-31 renal is greater than 33.2 µM; in the assay with RXF 393 renal, 1.62 µM; in the assay on CCRF-CEM leukemia, greater than 33.2 µM; with TK-10 renal, greater than 33.2 µM; with COLO 205 colon it was 2.37 µM; in the assay on A498 renal it was 0.897 µM. In addition, the GI50 in the assay with UACC-257 melanoma is greater than 33.2 µM. The TGI with UO-31 renal is greater than 33.2 µM; in the assay on RXF 393 renal it was 10.4 µM; in the assay with CCRF-CEM leukemia, greater than 33.2 µM; with TK-10 renal it was greater than 33.2 µM; in the assay with COLO 205 colon, greater than 33.2 µM; in the assay with A498 renal it was greater than 33.2 µM. In the assay on UACC-257 melanoma, the TGI was greater than 33.2 µM.
On to `Cc1ccc(-c2cn3ccnc3c(-c3ccc(Cl)cc3)n2)cc1`, for which the TGI is greater than 100 µM with UO-31 renal; greater than 100 µM in the assay on RXF 393 renal; greater than 100 µM in the assay on CCRF-CEM leukemia; 24.8 µM with TK-10 renal; greater than 29.3 µM in the assay on COLO 205 colon; 8.11 µM with A498 renal. Also, in the assay on UACC-257 melanoma, the TGI was greater than 100 µM. The GI50 with RXF 393 renal is 2.16 µM; with CCRF-CEM leukemia, 0.122 µM; in the assay on TK-10 renal, 0.419 µM; with COLO 205 colon, 0.2 µM; with A498 renal, 0.389 µM.
As for `Nc1nc2c(c3ncncc13)C(c1cccc(C(F)(F)F)c1)Cc1ncncc1-2` (configuration not stated), the GI50 with UO-31 renal was 7.22 µM; in the assay with RXF 393 renal, 2.96 µM; with CCRF-CEM leukemia, 4.28 µM; in the assay on TK-10 renal, 9.05 µM; with COLO 205 colon, 3.26 µM; with A498 renal, 3.28 µM. In the assay on UACC-257 melanoma, the GI50 was 9.56 µM. Moreover, the TGI in the assay on UO-31 renal amounted to 85 µM; in the assay on RXF 393 renal it was 8.81 µM; in the assay with CCRF-CEM leukemia, 23.3 µM; with TK-10 renal, 79.4 µM; in the assay on COLO 205 colon it was 13.8 µM; in the assay on A498 renal it was 8.75 µM. In the assay on UACC-257 melanoma, the TGI is 62.1 µM.
With `Cc1ccccc1[P+](Cc1ccccc1)(c1ccccc1)c1ccccc1`, the GI50 in the assay with UO-31 renal was 14.2 µM; in the assay with RXF 393 renal, 4.35 µM; in the assay on CCRF-CEM leukemia, 2.1 µM; in the assay on COLO 205 colon, 1.51 µM; in the assay with A498 renal, 1.46 µM; with UACC-257 melanoma, 0.623 µM. Further, the TGI in the assay with UO-31 renal was found to be 69.2 µM; in the assay on RXF 393 renal, 51.8 µM; in the assay on CCRF-CEM leukemia, 33.5 µM; in the assay with COLO 205 colon, 4 µM; with A498 renal, 7.2 µM; in the assay on UACC-257 melanoma, 4.23 µM.
Consider `OC(c1cc(-c2ccccc2)nc2ccc(Cl)cc12)C1CCCCN1` (configuration not stated), for which the GI50 is 1.73 µM in the assay on UO-31 renal; 2.01 µM in the assay on RXF 393 renal; 2.59 µM in the assay with CCRF-CEM leukemia; 4.06 µM in the assay on TK-10 renal; 6.22 µM in the assay on A498 renal; 2.23 µM with UACC-257 melanoma. The TGI with UO-31 renal worked out at 4.19 µM; in the assay on RXF 393 renal, 3.84 µM; in the assay on CCRF-CEM leukemia, 7.69 µM; in the assay with TK-10 renal, 16.2 µM; with A498 renal, 20.3 µM; in the assay on UACC-257 melanoma, 4.13 µM.
As for `NCCOCCOCCNc1nc(Cc2ccccc2)nc(NCCCN2CCCC2=O)n1`, the GI50 with UO-31 renal, in the assay with RXF 393 renal, with CCRF-CEM leukemia, in the assay with COLO 205 colon, in the assay with A498 renal and with UACC-257 melanoma was greater than 100 µM throughout. Besides, the TGI with UO-31 renal, with RXF 393 renal, with CCRF-CEM leukemia, in the assay with COLO 205 colon, in the assay with A498 renal and with UACC-257 melanoma was greater than 100 µM throughout.
